In patent US20250092065A1, “2-(INDAZOL-5-YL)-6-(PIPERIDIN-4-YL)-1,7-NAPHTHYRIDINE DERIVATIVES AND RELATED COMPOUNDS AS MODULATORS FOR SPLICING NUCLEIC ACIDS AND FOR THE TREATMENT OF PROLIFERATIVE DISEASES” (REMIX THERAPEUTICS INC., priority 2022, published 2025):
pIC50: −log10 of the molar value. Like-named read-outs stand apart in the source and are kept apart here.

Legend:
HTT mRNA = assay: RT-qPCR splicing assay, HTT mRNA canonical (CJ) and alternative (AJ) junction; type: cell-based, human; conditions: Homo sapiens; for AC50: HTT alternative junction mRNA, read-out: HTT AJ (increase in AJ mRNA, AC50)
How it was run: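 Junction-specific RT-qPCR read-out: CJ and AJ isoform levels, housekeeper-normalized (GAPDH/GUSB/PPIA), ΔΔCt vs DMSO, converted to RQ then % response. Cells: A673 (DMEM/10% FBS, adhered 24 h) or K562 (IMDM/10% FBS). Compound 11-pt 3-fold, top 10 uM, 24 h, 37 °C.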

MYB = assay: HiBiT protein abundance assay, MYB (K562 HiBiT knock-in); type: cell-based, human; conditions: HiBiT knock-in K562 cells, 24 hours, top dose 10 μM
How it was run: (§1)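 Steps: seed HiBiT knock-in K562 cells; add compound in 10-point 3-fold series from 10 μM final; incubate 24 h, 37 °C; add lytic HiBiT reagent, shake 5 min, wait 10 min; read luminescence. Normalize to parental K562 and DMSO controls, fit 4PL, take IC50.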

HTT = assay: HiBiT protein abundance assay, HTT (K562 HiBiT knock-in); type: cell-based, human; conditions: HiBiT knock-in K562 cells, 24 hours, top dose 10 μM
How it was run: as §1

Target C = assay: HiBiT protein abundance assay, Target C (K562 HiBiT knock-in); type: cell-based, human; conditions: HiBiT knock-in K562 cells, 24 hours, top dose 10 μM
How it was run: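 K562 HiBiT knock-in cells (10000/well) were treated 24 h at 37° C with a 10-point 3-fold dilution series (top 10 μM final, ≤0.25% DMSO). HiBiT luminescence was read after lytic LgBiT detection. Percent response used unmodified K562 and DMSO-treated knock-in controls, and IC50 came from a four-parameter fit at 50% of untreated.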

K562 cells = assay: Cell Titer Glo 2.0 cell viability (toxicity) assay, K562; conditions: 500 cells/well, 72 hours
[1] = HTT canonical junction mRNA, RT-qPCR, read-out: HTT CJ (decrease in CJ mRNA levels, IC50)
[2] = canonical junction qPCR panel, Table 4, read-out: HTT IC50 (decrease in CJ mRNA levels)

pIC50 (HTT mRNA; [1])	pIC50 (HTT mRNA; [2])	pIC50 (MYB)	pIC50 (HTT)	pIC50 (Target C)	SMILES	AC50 (HTT mRNA; RT-qPCR)	Effect of Exemplary Compounds on Cell Viability, K562 (K562 cells)
> 7.00	> 7.00	> 7.00	> 7.00	> 7.00	C[C@H]1C[C@H](c2ccc3nc(-c4cc5cn(C)nc5c(F)c4O)ccc3n2)CCN1 (single isomer, unassigned) [Compound 356]	< 100 nM	A (A represents <100 nM)
> 7.00	> 7.00	> 7.00	> 7.00	> 7.00	Cc1c(O)c(-c2ccc3nc(N4CC[C@H](N[C@H]5C[C@H](F)C5)C4)ccc3n2)cc2cn(C)nc12 (single isomer, unassigned) [Compound 358]	< 100 nM	B (B represents 100-1000 nM)
> 7.00	> 7.00	> 7.00	> 7.00	> 7.00	Cn1cc2cc(-c3ccc4nc(N5CC[C@@H](N)C5)ccc4n3)c(O)c(F)c2n1 (single isomer, unassigned) [Compound 362]	< 100 nM	A (A represents <100 nM)
6.00 to 7.00	6.00 to 7.00	> 7.00	6.00 to 7.00	6.00 to 7.00	CN[C@@H]1CCN(c2ccc3nc(-c4cc5cn(C)nc5c(C)c4O)ncc3n2)C1 (single isomer, unassigned) [Compound 368]	100 to 1000 nM	A (A represents <100 nM)
6.00 to 7.00	6.00 to 7.00	> 7.00	6.00 to 7.00	6.00 to 7.00	CN[C@H]1CCN(c2ccc3nc(-c4cc5cn(C)nc5c(C)c4O)ncc3n2)C1 (single isomer, unassigned) [Compound 369]	100 to 1000 nM	B (B represents 100-1000 nM)
> 7.00	> 7.00	> 7.00	> 7.00	> 7.00	Cc1nc2c(F)c(O)c(-c3ccc4nc(N5CC[C@H](NC6(CF)CC6)C5)ccc4n3)cc2o1 (single isomer, unassigned) [Compound 373]	< 100 nM	A (A represents <100 nM)
> 7.00	> 7.00	> 7.00	> 7.00	> 7.00	Cc1nc2c(C)c(O)c(-c3ccc4nc(N5CC[C@H](NC6(CF)CC6)C5)ccc4n3)cc2o1 (single isomer, unassigned) [Compound 378]	< 100 nM	B (B represents 100-1000 nM)
> 7.00	> 7.00	> 7.00	> 7.00	6.00 to 7.00	Cc1nc2c(C)c(O)c(-c3ccc4nc(N5CC[C@@H](NC6(CF)CC6)C5)ccc4n3)cc2o1 (single isomer, unassigned) [Compound 379]	100 to 1000 nM	B (B represents 100-1000 nM)
> 7.00	> 7.00	> 7.00	> 7.00	6.00 to 7.00	Cn1cc2cc(-c3ncc4nc(N5CC[C@@H](N)C5)ccc4n3)c(O)c(F)c2n1 (single isomer, unassigned) [Compound 380]	100 to 1000 nM	A (A represents <100 nM)
> 7.00	> 7.00	> 7.00	> 7.00	> 7.00	C[C@H]1C[C@@H](c2ccc3nc(-c4cc5cn(C)nc5c(F)c4O)ccc3n2)CCN1 (single isomer, unassigned) [Compound 383]	< 100 nM	A (A represents <100 nM)
< 5.00	< 5.00	6.00 to 7.00	5.00 to 6.00	5.00 to 6.00	Cn1cc2cc(-c3ccc4nc(C5CCNC[C@H]5O)ccc4n3)c(O)cc2n1 (single isomer, unassigned) [Compound 386]	> 10000 nM	C (C represents 1000-9999 nM)
> 7.00	> 7.00	> 7.00	> 7.00	> 7.00	Cn1cc2cc(-c3ccc4nc(N5CC[C@@H](NC(C)(C)C)C5)ccc4n3)c(O)c(F)c2n1 (single isomer, unassigned) [Compound 391]	< 100 nM	A (A represents <100 nM)
> 7.00	> 7.00	> 7.00	> 7.00	> 7.00	Cn1cc2cc(-c3ccc4nc(N5CC[C@H](NC(C)(C)C)C5)ccc4n3)c(O)c(F)c2n1 (single isomer, unassigned) [Compound 392]	< 100 nM	A (A represents <100 nM)
5.00 to 6.00	5.00 to 6.00	6.00 to 7.00	5.00 to 6.00	5.00 to 6.00	Cc1c(O)c(-c2ncc3nc([C@@H]4CCNC4)ccc3n2)cc2cn(C)nc12 (single isomer, unassigned) [Compound 398]	1000 to 10000 nM	C (C represents 1000-9999 nM)
> 7.00	> 7.00	6.00 to 7.00	> 7.00	> 7.00	Cc1nc2c(C)c(O)c(-c3ccc4nc(N5CC[C@@H](NC6CC6)C5)ncc4n3)cc2o1 (single isomer, unassigned) [Compound 432]	< 100 nM	B (B represents 100-1000 nM)
> 7.00	> 7.00	6.00 to 7.00	6.00 to 7.00	> 7.00	Cc1nc2cc(O)c(-c3ccc4nc(N5CC[C@@H](NC6CC6)C5)ncc4n3)cc2o1 (single isomer, unassigned) [Compound 434]	< 100 nM	B (B represents 100-1000 nM)
> 7.00	> 7.00	> 7.00	> 7.00	6.00 to 7.00	Cc1nc2c(C)c(O)c(-c3ccc4cc(N5CC[C@@H](NC(C)(C)C)C5)ncc4n3)cc2o1 (single isomer, unassigned) [Compound 444]	100 to 1000 nM	B (B represents 100-1000 nM)
5.00 to 6.00	5.00 to 6.00	6.00 to 7.00	6.00 to 7.00	5.00 to 6.00	Cc1nc2c(C)c(O)c(-c3ccc4cc(N5CC[C@H](NC(C)(C)C)C5)ncc4n3)cc2o1 (single isomer, unassigned) [Compound 445]	1000 to 10000 nM	C (C represents 1000-9999 nM)
> 7.00	> 7.00	6.00 to 7.00	> 7.00	> 7.00	Cc1nc2cc(O)c(-c3ccc4nc(N5CC[C@@H](NC6(CF)CC6)C5)ccc4n3)cc2o1 (single isomer, unassigned) [Compound 488]	< 100 nM	B (B represents 100-1000 nM)
> 7.00	> 7.00	> 7.00	> 7.00	> 7.00	Cc1nc2cc(O)c(-c3ccc4nc(N5CC[C@H](NC6(CF)CC6)C5)ccc4n3)cc2o1 (single isomer, unassigned) [Compound 489]	< 100 nM	A (A represents <100 nM)
> 7.00	> 7.00	> 7.00	> 7.00	> 7.00	Cc1nc2c(F)c(O)c(-c3ccc4nc(N5CC[C@@H](NC6(CF)CC6)C5)ccc4n3)cc2o1 (single isomer, unassigned) [Compound 491]	< 100 nM	A (A represents <100 nM)
> 7.00	> 7.00	> 7.00	> 7.00	> 7.00	Cn1cc2cc(-c3ccc4nc(N5CCC(NC6(CF)CC6)C5)ccc4n3)c(O)c(F)c2n1 (stereo in doubt) [Compound 353, 7-fluoro-5-{6-[(3R)-3-{[1-(fluoromethyl)cyclopropyl]amino}pyrrolidin-1-yl]-1,5-naphthyridin-2-yl}-2-methylindazol-6-ol]	< 100 nM	A (A represents <100 nM)
> 7.00	> 7.00	> 7.00	> 7.00	> 7.00	Cn1cc2cc(-c3ccc4nc(N5CCC(NC6(CF)CC6)C5)ccc4n3)c(O)c(F)c2n1 (stereo in doubt) [Compound 357, 7-fluoro-5-{6-[(3S)-3-{[1-(fluoromethyl)cyclopropyl]amino}pyrrolidin-1-yl]-1,5-naphthyridin-2-yl}-2-methylindazol-6-ol]	< 100 nM	A (A represents <100 nM)
